Test systems include MOLT-4; A498; SK-MEL-5; Malme-3M; SF-268; NCI-H522; 786-0; NCI-H226; OVCAR-4; HT-29; HCT-15; UACC-257; HCT-116; KM12; SK-MEL-2; OVCAR-3; ACHN; IGROV-1.
Common to all, as to assay: DTP human tumour cell line panel, 48 h

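Test compounds were applied to cells in 96-well plates for 48 hours at 5 doses. GI50 is the concentration that inhibits growth by half.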 The source made the active and inactive calls. Cut-off read from the data, not from the text of the source: active = GI50 up to about 1.1 µM and inactive = higher.

The term GI50 denotes the concentration that inhibits growth by half.

Regarding `COc1cc(C(O)C(=O)c2nc3ccc([N+](=O)[O-])cc3nc2O)ccc1O` (configuration not stated), the GI50 in the test on MOLT-4 is > 100 µM (inactive); in the test with A498, 34.6 µM (inactive); in the test on SK-MEL-5 it was 81.1 µM (inactive); in the test on Malme-3M it was > 100 µM (inactive); in the test with SF-268, > 100 µM (inactive); in the test on NCI-H522, 18.8 µM (inactive). For the same molecule, the GI50 in the test with 786-0 is > 100 µM (inactive); in the test on NCI-H226 it was > 100 µM (inactive); in the test on OVCAR-4 it was > 100 µM (inactive); with HT-29, > 100 µM (inactive); in the test on HCT-15, over 100 µM; in the test with UACC-257 it was > 10 µM (inactive). In addition, the GI50 with HCT-116 was > 100 µM (inactive); with KM12, > 100 µM (inactive); with SK-MEL-2 it was > 100 µM (inactive); with OVCAR-3, > 100 µM (inactive); in the test with ACHN it was 54.2 µM (inactive); in the test with IGROV-1, > 100 µM (inactive).

For `Cc1ccc(C)c(NC(=O)/C(=N\NC(N)=S)C(C#N)c2ccccc2)c1` (configuration not stated), the GI50 in the test with MOLT-4, in the test with A498, in the test on SK-MEL-5, in the test on Malme-3M, in the test on SF-268 and in the test on NCI-H522 was > 100 µM (inactive) each time. Besides, the GI50 is > 100 µM (inactive) in the test with 786-0; > 100 µM (inactive) in the test on NCI-H226; > 100 µM (inactive) in the test with OVCAR-4; > 100 µM (inactive) in the test on HT-29; over 100 µM with HCT-15; > 100 µM (inactive) with UACC-257. Also, the GI50 with HCT-116, in the test on KM12, with SK-MEL-2, in the test on OVCAR-3, with ACHN and in the test on IGROV-1 was > 100 µM (inactive) in each case.

For `COc1cccc(NC(=O)C(C)(C)C)c1C=O`, the GI50 with MOLT-4 is 31 µM (inactive); with A498, > 100 µM (inactive); with SK-MEL-5, 88.1 µM (inactive); in the test on Malme-3M it was > 100 µM (inactive); in the test on SF-268, 47.5 µM (inactive); in the test with NCI-H522 it was 55.2 µM (inactive). Moreover, the GI50 is > 100 µM (inactive) in the test with 786-0; 33.4 µM (inactive) in the test with NCI-H226; 46.1 µM (inactive) in the test with OVCAR-4; 40.7 µM (inactive) with HT-29; 35.4 µM in the test with HCT-15; 65.8 µM (inactive) in the test on UACC-257. Further, the GI50 with HCT-116 is 35.6 µM (inactive); in the test on KM12 it was 42.3 µM (inactive); in the test on SK-MEL-2, 73.6 µM (inactive); in the test on OVCAR-3 it was 37 µM (inactive); in the test with ACHN, 56.2 µM (inactive); in the test on IGROV-1 it was 56.1 µM (inactive).

For the molecule `COc1cccc(NC(=O)C(=O)C2C=CCS2(=O)=O)c1` (configuration not stated), the GI50 in the test with MOLT-4, in the test on A498, in the test on SK-MEL-5, with Malme-3M, in the test on SF-268 and with NCI-H522 was > 100 µM (inactive) each time. In addition, the GI50 with 786-0 is > 100 µM (inactive); in the test with NCI-H226, > 100 µM (inactive); with OVCAR-4, > 100 µM (inactive); in the test on HT-29 it was > 100 µM (inactive); in the test on HCT-15, over 100 µM; in the test on UACC-257, > 100 µM (inactive). The GI50 in the test with HCT-116, in the test with KM12, in the test on SK-MEL-2, in the test on OVCAR-3, in the test with ACHN and in the test on IGROV-1 was > 100 µM (inactive) in each case.

Values taken from ChEMBL document CHEMBL1201862, “PubChem BioAssay data set” (2004).
